According to patent US20120149574A1, “Methods and Compositions for Managing Water Quality in a Body of Water” (priority 2010, published 2012):

Experiments:
[1] = Comparative pond treatment, single application: turbidity and total phosphorus; details: single application 1 ppm copper
Protocol: (§1) Two ponds of similar dimensions (0.1 surface acres, 4 foot average depth) and similar water character, located beside each other, were used in this experiment. Both ponds were treated once (immediately following the initial sampling event) with the same concentration of copper, 1 ppm, and monitored through time. One pond was treated with Composition E1 and the other with copper sulfate pentahydrate. The objectives were 1) to evaluate the change in algae assemblage composition, 2) to measure algaecidal impacts and re-growth of algae, 3) to measure changes in phosphorus and turbidity following treatment.

[2] = Comparative pond treatment, multiple applications: turbidity, phosphorus, water quality; details: five applications, FIGS. 11 and 12
Protocol: (§2) One pond was treated with a liquid composition prepared as in Example 1 (hereinafter termed “Composition E1”) and the other with copper sulfate pentahydrate. Both ponds were treated with the same concentration of copper on the same days. Five algaecide applications, each approximately one week apart, were conducted on the corresponding pond as a surface spray. The first application was a 1 ppm copper rate, whereas the following applications were all 0.5 ppm copper. All five treatments were completed by the 34th day following the initial treatment (“DAT”), though water sampling continued to evaluate changes in algae growth and water clarity. Representative water samples were periodically collected from each of the ponds at the same durations following treatments. […] As mentioned previously, when used alone, alum is generally applied at such high doses that a buffer is concurrently applied to prevent dramatic changes in water quality that can result in acute toxicity to aquatic organisms.

algae [3] = test: Comparative pond treatment vs. copper sulfate alone, multiple applications: algae; format: in vivo, green algae (Chlorophyta), cyanobacteria (Cyanophyta)
Protocol: as §2

algae [4] = test: Comparative pond treatment vs. copper sulfate alone, single application: algae; format: in vivo, green algae (Chlorophyta), cyanobacteria (Cyanophyta)
Protocol: as §1

With `O.O.O.O.O.O=S(=O)([O-])[O-].[Cu+2]` [copper sulfate, copper sulfate pentahydrate] the total phosphorus ([1]; 7 DAT (FIG. 17)) was “little change”, the total phosphorus ([1]; 14 DAT vs initial (FIG. 17)) was “notable increase from initial levels” and the “total phosphorus (TP) and free reactive phosphorus (FRP) concentrations over time” value [2] was “substantially higher than the Composition E1-treated pond”. For the same compound, the “chlorophyll levels following cessation of the algaecide treatments” value (algae [3]; after fifth application (34 DAT) (FIG. 9)) was “rapidly and significantly increased”, the algal assemblage composition (algae [3]; during and after five applications (FIGS. 13 and 14)) was “cyanobacteria (Cyanophyta) became dominant” and the “chlorophyll a concentration, highest measurements” value (algae [3]; five applications (1 ppm then 0.5 ppm copper), sampling to 69 DAT (FIG. 9), copper sulfate: many measurements, Composition E1: on one occasion) was “exceeding 100 μg/L”. For the same compound, the “algal assemblage following treatment” value (algae [4]; single application 1 ppm copper (FIGS. 18 and 19)) was “remained dominated by cyanobacteria”, the “decrease of treated algae” value (algae [4]; single application 1 ppm copper, 7 DAT) was 78% and the chlorophyll a (algae [4]; single application 1 ppm copper, 7 DAT (FIG. 15)) was “significantly decreased”. The chlorophyll a (algae [4]; single application 1 ppm copper, 14 DAT (FIG. 15)) was “significantly higher” and the “increase in algal densities” value (algae [4]; single application 1 ppm copper, between 7 and 14 DAT) was 350%.
